Assay [1] concerns rat C6 glioma cells. Nature of the assay: Cell proliferation assay ([3H] thymidine incorporation), C6 glioma cells. Format: cell-based. Conditions: 6.5 μM, 18 h, hHO-1 transfected rat C6 glioma cells; hydrochloride. As for the experimental part:
Rat C6 glioma cells were cultivated in high glucose DMEM supplemented with 10% heat-inactivated fetal bovine serum, […] glutamine, and penicillin-streptomycin (50 U/mL and 50 μg/in L, respectively). […] All cultures were incubated at 37° C. in humidified 95% air-5% CO2.
Cells were seeded in 24-well plates at 1×10^6 cells/mL/well. Upon reaching >90% confluence, cells in each well were transiently transfected with 1.6 μg of plasmid DNA-Lipofectamine 2000 complex using Lipofectamine 2000 method according to manufacturer instructions (Invitrogen). 1.6 μg of plasmid DNA and 4 μL of Lipofectamine 2000 reagent were diluted individually in 100 μL opti-MEM I and incubated for 5 minutes at room temperature with gentle mixing. […]
Cell proliferation was determined by [^3H] thymidine incorporation: Cells were plated in 24-well plates at 10^6 cells/mL/well in complete medium. […] The cells were trypsinized and collected, air-dried on 21 mm glass microfibre filters (Whatman International Ltd., Maidstone, England) and analyzed by scintillation counting in a Wallac-Liquid Scintillator Counter (Perkin Elmer Life Sciences, Boston, Mass., USA). [^3H] thymidine incorporation was expressed as counts per min (cpm) per mL.

Assay [2] has as its system SKMEL-V human melanoma cells. The experiment in a line: Human melanoma model SKMEL-V+ in SCID mice (pilot study), tumor growth. Format: in vivo, Mouse (Mus musculus); SCID. An excerpt:
Human melanoma cells (“SKMEL-V cells”) were derived from SKMEL-24 cells (ATCC) by over expression of mouse VEGF.
Only those cells with >95% viability were used for in-viva studies.
Once tumors reached a size of approximately 0.7 cm^3, they were removed under sterile condition, sliced into small pieces under a stereo-microscope. Each tissue piece was then re-inoculated subcutaneously. Only pieces of approximately the same size and with no signs of necrosis were used.
All data in this study are presented as mean±SE. Statistical analyses were performed by one-way ANOVA followed by Newman-Keuls post-hoc comparisons to assess significant main effects within groups. Statistical significance was set at p<0.05.

Assay [3] deals with CD31-positive vessels in SKMEL-V+ tumors. Nature of the assay: CD31 immunohistochemistry / microvessel density of SKMEL-V+ tumors. Format: in vivo, Mouse (Mus musculus), male SCID. Conditions: QC-56 particularly at 60 mg/kg, hydrochloride, 60 mg/kg. Here is the method: Cell cultures were maintained in 5% CO2/95% air at 37° C. SKMEL-V (human melanoma cells). SKMEL-V cells were derived from SKMEL-24 cells (ATCC) by overexpression of mouse VEGF. […] Tumors were either snap frozen in liquid nitrogen or fixed in 10% buffered formalin and embedded in paraffin. […] BD PharMingen, San Diego, Calif.). […] Sections were rehydrated in PBS and then blocked with 5% normal goat serum for 1 h. The sections were then incubated overnight at 4° C. with CD31 antibody diluted 1:25 in 3% BSA-PBS. […] Paraffin-embedded material was used for Harris' hematoxylin. Microvessel density was quantified using a method described by Weidner et al ([…], and Folkman […]. Med, 1991; 324:1-8). Briefly, randomly vascularized areas were selected (hot spots) under 40× field and 100× fields. Then a 400× field was used to count microvessels in each of these areas. Single endothelial cells or clusters of endothelial cells with or without lumen were considered to be individual vessels. […] All slides were examined blindly with no prior knowledge of the treatment status.

The values below come from patent US20120020915A1, “Compounds and Methods for Treating Cancer and Diseases of the Central Nervous System” (QUEENS UNIVERSITY AT KINGSTON, priority 2007, published 2012).

“Also recorded” adds a separate entry of the source.

As to `Brc1ccc(CCC2(Cn3ccnc3)OCCO2)cc1.Cl` [QC-56, 1-((2-(2-(4-Bromophenyl)ethyl)-1,3-dioxolan-2-yl)methyl)-1H-imidazole hydrochloride], in assay [1], the “3H-thymidine incorporation, hHO-1 transfected cells” value was “significantly attenuated the effects of hHO-1 transfection on ^3H-thymidine incorporation; also recorded: this rate of proliferation was attenuated”. Moreover, the “tumor volume compared with vehicle alone” value in assay [2] (30 mg/kg (P<0.03)) and in assay [2] (60 mg/kg (P<0.02)) was “statistically significantly smaller” throughout. The “vessel count / tumor vascularization (CD31)” value in assay [3] was “significant decrease in the size and number of blood vessels”.
